Source: publication PMC4514850, “A Novel TGR5 Activator WB403 Promotes GLP-1 Secretion and Preserves Pancreatic β-Cells in Type 2 Diabetic Mice” (PLoS ONE, 2015)
Entries after “also recorded” stand apart in the source; their conditions may differ.

Columns and labels:
hGPR40 = molecular target: T1, hGPR40 (Homo sapiens, UniProt O14842); assay: GPR40-dependent calcium mobilization in 293-GPR40 stable cells; assay type: cell-based; conditions: 5, 10, 50 μmol/l
T1 construct: expressed in transfected cells
T1 sequence (O14842 whole entry): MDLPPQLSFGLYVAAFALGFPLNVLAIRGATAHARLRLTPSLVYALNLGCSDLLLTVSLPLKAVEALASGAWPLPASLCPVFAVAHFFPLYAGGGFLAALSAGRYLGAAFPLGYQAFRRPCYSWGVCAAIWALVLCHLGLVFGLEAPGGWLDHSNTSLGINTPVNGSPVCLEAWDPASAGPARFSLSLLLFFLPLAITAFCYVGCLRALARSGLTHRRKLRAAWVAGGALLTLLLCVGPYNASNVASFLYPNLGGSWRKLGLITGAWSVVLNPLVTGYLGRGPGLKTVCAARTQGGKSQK
Method: For human TGR5 luciferase (luc) assay, 293T cells were co-transfected with pCRE-luc, pTGR5 (kind gift from Prof. Johan Auwerx, Ecole Polytechnique Fédérale de Lausanne, Lausanne, Switzerland) and pRenilla (Promega, USA). WB403 was added 5 h later. Cells were harvested after 16 h and subjected to luciferase analysis on Lumistar Optima chemiluminescent detector (BMG labtech, Germany). For cAMP testing, 293T cells transiently transfected with pTGR5 or pGPR119 (GeneCopoeia, USA) were washed by FBS-free DMEM, and stimulated with WB403 in FBS-free DMEM containing 3-isobutyl-1-methyl-xanthine (IBMX, Sigma). Cell lysates were collected 30 min later and used for cAMP ELISA assay. FLIPR Calcium 5 assay kit (Molecular Devices, USA) was used for calcium mobilization assay. 293-GPR40 stable cells (kindly provided by Prof. Naiming Zhou of Zhejiang University, Hanzhou, China) or 293 cells transient transfected with GPR120 were seeded at 50,000 cells per well in black-walled clear-bottomed 96-well plates (Costar). An equal volume of loading buffer containing Fluo 4-AM was added the following day and cells were incubated for 1 h before stimulated with compounds. Increase of the intracellular Ca^2+ concentration was monitored by Flexstation 3 system (Molecular Devices, USA).
Fig 6 Effect of WB403 on GPCRs related to GLP-1 secretion. (A) GPCR expression in human NCI-H716 and mouse MIN6 cells. […]

db/db mice = assay: pancreas histology (H&E, IHC) of treated db/db mice; assay type: in vivo
Method: (§1) Analysis of islet cell mass was performed using conventional methods. In brief, mice were sacrificed by cervical dislocation. The body part of the pancreas was rapidly excised, fixed in 10% neutral buffered formalin solution for 24 h and embedded in paraffin, then sectioned at 5 μm ready for hematoxylin and eosin (H&E) staining and immunohistochemistry staining (IHC). The latter was carried out using rabbit anti-insulin polyclonal antibody (Cat. no. 4590, 1:600) and rabbit anti-glucagon monoclonal antibody (Cat. no. 8233s, 1:200) from Cell Signaling Technology.
(§2) Fig 5 WB403 preserved the mass of pancreatic β-cells and normal distribution of α and β-cells. (A) H&E staining of pancreas from db/db mice, and statistical result. Islets were sized by the Image J analysis software on alternated pancreatic sections spaced each by 100 μm. (B) Immunohistochemical analysis of pancreatic sections by anti-insulin antibody or anti-glucagon antibody. (C) H&E staining of pancreas from HFD/STZ mice, and statistical result. Results are representative islets from each group. 1–5 in the column graph on the right represents normal mice, diabetic mice treated with vehicle, WB403 50 mg/kg, WB403 100 mg/kg, sitagliptin 100 mg/kg respectively (n = 5). *p<0.05, **p<0.01, ***p<0.001 vs. diabetes-vehicle group.

HFD/STZ mice = assay: pancreas histology (H&E) of treated HFD/STZ mice; assay type: in vivo; conditions: after 8-week treatment
Method: as §1, §2

gallbladders of mice = assay: gallbladder filling in normal mice; assay type: in vivo; conditions: 200 mg/kg ip, normal mice fasted overnight, gallbladders removed 30 min later, n = 10
Description: Fig 1 WB403 activated TGR5 and promoted active GLP-1 secretion. (A) WB403 stimulated hTGR5 in CRE-luciferase report system at the concentration range of 1–20 μmol/l. (B) WB403 stimulated hTGR5 specific cAMP accumulation at the concentration range of 1–50 μmol/l. n = 3. **p<0.01, ***p<0.001 vs. DMSO (+TGR5) group. (C) The hTGR5 targeted CRE-luciferase activity of WB403 and ZY403. […] (D) Effect of WB403 and ZY403 on gallbladders of mice. Normal mice were fasted overnight and treated with compounds (200 mg/kg) or vehicle (DMSO) by ip injection. Gallbladders (GB) were removed 30 min later and volumes measured then normalized to body weight (B.W.). n = 10. **p<0.01 vs. vehicle group. (E) Structure of WB403 and ZY403. WB403 promoted GLP-1 secretion in NCI-H716 cells (F), primary enterocytes (G), and MIN6 cells (H). n = 3. *p<0.05, **p<0.01, ***p<0.001 vs. vehicle group. (I) WB403 promoted GLP-1 in ICR mice. n = 5. **p<0.01 vs. vehicle group. Values represent mean ± SEM.

normal mice = assay: 4-week treatment of normal mice (hypoglycemia risk); assay type: in vivo; conditions: 100 mg/kg, 4 weeks
Method: Mice were treated for 4 weeks by WB403 and sitagliptin at 100 mg/kg. Glibenclamide at 2.5 mg/kg was used as positive control for hypoglycemia. FBG (A) and PBG (B) were measured every week. Values are mean ± SD (n = 10). *p<0.05, **p<0.01 vs. vehicle group. (TIF) Click here for additional data file.

For `CCc1cc(-c2nc(C)c(COCc3ccc(Br)cc3)s2)ccn1` [WB403, 4-(5-((4-bromobenzyloxy)-methyl)-4-methylthiazol-2-yl)-2-ethylpyridine], which “hGPR40-Ca2+ activation (calcium mobilization)” value (hGPR40) is on record?
Its value is “neither did it exhibit significant effect; also recorded: no significant effect”.

What about the “islet area vs vehicle” value (db/db mice; H&E, after 4-week treatment) of the same compound?
Its value is “bigger islet area as compared to the vehicle mice, though no significant difference was found”.

And the “α-cell and β-cell distribution in islets” value (db/db mice; IHC anti-insulin / anti-glucagon)?
Its value is “significantly reduced α-cell in the islet core area and restored the normal cell distribution pattern”.

What about the islet area (HFD/STZ mice) of the same compound?
Its islet area is “restored islet area but did not expand it beyond that of normal mice”.

And the gallbladder filling (gallbladders of mice)?
Its gallbladder filling is “did not”.

What about the “FBG lowering in normal mice” value (normal mice) of the same compound?
The value was “did not cause significant FBG and PBG lowering”.

And the “PBG lowering in normal mice” value (normal mice)?
Its value is “did not cause significant FBG and PBG lowering”.
